From patent US9834558B2, “Substituted bridged urea analogs as sirtuin modulators” (GLAXOSMITHKLINE LLC, priority 2013, dated 2017)
Like-named read-outs stand apart in the source and are kept apart here.

Target: T1, SIRT1 (Homo sapiens, UniProt Q96EB6)
T1 sequence (Q96EB6 1-747): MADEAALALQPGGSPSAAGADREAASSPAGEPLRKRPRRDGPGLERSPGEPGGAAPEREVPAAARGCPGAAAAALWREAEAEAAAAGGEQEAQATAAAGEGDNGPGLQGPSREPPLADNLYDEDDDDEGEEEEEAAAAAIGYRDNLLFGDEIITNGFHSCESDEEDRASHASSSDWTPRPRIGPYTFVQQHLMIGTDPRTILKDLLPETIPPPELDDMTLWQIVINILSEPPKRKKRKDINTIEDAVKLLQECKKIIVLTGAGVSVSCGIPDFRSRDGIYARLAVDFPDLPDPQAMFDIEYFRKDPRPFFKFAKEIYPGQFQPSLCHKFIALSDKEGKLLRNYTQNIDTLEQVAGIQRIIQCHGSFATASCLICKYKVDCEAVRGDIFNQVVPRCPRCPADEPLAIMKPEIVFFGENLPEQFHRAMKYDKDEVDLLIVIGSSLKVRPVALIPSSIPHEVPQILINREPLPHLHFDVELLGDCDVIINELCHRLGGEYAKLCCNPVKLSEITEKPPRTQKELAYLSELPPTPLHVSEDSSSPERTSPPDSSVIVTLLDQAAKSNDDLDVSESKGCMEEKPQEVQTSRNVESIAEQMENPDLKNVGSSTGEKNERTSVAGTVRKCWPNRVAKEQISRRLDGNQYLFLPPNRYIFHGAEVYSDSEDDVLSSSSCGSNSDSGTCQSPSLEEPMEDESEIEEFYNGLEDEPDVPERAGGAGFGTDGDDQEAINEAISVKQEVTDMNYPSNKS
Assay: Trp mass spectrometry assay of SIRT1 activation
Type: biochemical
Details: for TRP Activity (EC1.5): EC1.5 = concentration that results in 150% activation of SIRT1
Excerpt: Mass spectrometry based assays were used to identify modulators of SIRT1 activity. […] The peptide was labeled with the fluorophore STMR (excitation 540 nm/emission 580 nm) at the C-terminus. The sequence of the peptide substrate was based on p53 with several modifications. In addition, the methionine residue naturally present in the sequence was replaced with the norleucine because the methionine may be susceptible to oxidation during synthesis and purification. The Trp based assay utilized a peptide having an amino acid residues as follows: Ac-R-H-K-K(Ac)-W-NH2 (SEQ ID NO: 2).
The Trp mass spectrometry assay was conducted as follows. 0.5 μM peptide substrate and 120 μM βNAD^+ were incubated with 10 nM SIRT1 for 25 minutes at 25° C. in a reaction buffer (50 mM HEPES pH 7.5, […], 1 mM DTT, 0.05% BSA). The SIRT1 protein was obtained by cloning the SirT1 gene into a T7-promoter containing vector, which was then expressed in BL21(DE3) bacterial cells and purified as described in further detail below. Test compound was added at varying concentrations to this reaction mixture and the resulting reactions were monitored. After the 25 minute incubation with SIRT1, 10 μL of 10% formic acid was added to stop the reaction. The resulting reactions were sealed and frozen for later mass spec analysis. The relative SIRT1 activity was then determined by measuring the amount of O-acetyl-ADP-ribose (OAADPR) formed (or, alternatively, the amount of deacetylated Trp peptide generated) by the NAD-dependent sirtuin deacetylation reaction in the presence of varying concentrations of the test compound versus control reactions lacking the test compound. The degree to which the test agent activated deacetylation by SIRT1 was expressed as EC1.5 (i.e., the concentration of compound required to increase SIRT1 activity by 50% over the control lacking test compound), and Percent Maximum Activation (i.e., the maximum activity relative to control (100%) obtained for the test compound).
This time point was the same as that used for test compounds and, within the linear range, the endpoint represents a change in velocity.
For the above assay, SIRT1 protein was expressed and purified as follows. The SirT1 gene was cloned into a T7-promoter containing vector and transformed into BL21(DE3). The protein was expressed by induction with 1 mM IPTG as an N-terminal His-tag fusion protein at 18° C. overnight and harvested at 30,000×g. Cells were lysed with lysozyme in lysis buffer (50 mM Tris-HCl, 2 mM Tris[2-carboxyethyl]phosphine (TCEP), 10 μM ZnCl2, 200 mM NaCl) and further treated with sonication for 10 min for complete lysis. The protein was purified over a Ni-NTA column (Amersham) and fractions containing pure protein were pooled, concentrated and run over a sizing column (Sephadex S200 26/60 global). The peak containing soluble protein was collected and run on an Ion-exchange column (MonoQ). Gradient elution (200 mM-500 mM NaCl) yielded pure protein. This protein was concentrated and dialyzed against dialysis buffer (20 mM Tris-HCl, 2 mM TCEP) overnight. The protein was aliquoted and frozen at −80° C. until further use.
“NT” means not tested; “ND” means not determinable.

[1] = Trp peptide assay, maximum activity relative to control (100%), read-out: TRP MAX RESP (percent maximum fold activation)
[2] = concentration giving 150% activation of SIRT1, Trp peptide substrate
[3] = Trp mass spectrometry assay, EC1.5 = concentration of test compound that results in 150% activation of SIRT1
[4] = Trp mass spectrometry assay, concentration of test compound giving 150% activation of SIRT1

Row | SMILES | TRP Activity (EC1.5) (Trp peptide assay) | Emax [1] [%] | Tryp AVG EC1.5 (μM) [3] | further results
1 | CCOc1cc(-c2ccc3c(n2)N(C(=O)Nc2cnccn2)[C@H]2CCN3C2)ccn1 [(9S)-5-(2-ethoxypyridin-4-yl)-N-(pyrazin-2-yl)-1,6,8-triazatricyclo[7.2.1.0 {2,7}]dodeca-2(7),3,5-triene-8-carboxamide] | B (B (EC1.5 1-25 μM)) | > 150 |  | 
2 | O=C(NC1CCC1)c1ccc2c(n1)N(C(=O)Nc1ccccn1)[C@H]1CCN2C1 [(9S)-5-N-cyclobutyl-8-N-(pyridin-2-yl)-1,6,8-triazatricyclo[7.2.1.0^{2,7}]dodeca-2(7),3,5-triene-5,8-dicarboxamide] | A (A (EC1.5<1 μM)) | > 150 |  | 
3 | Cc1cc(-c2ccc3c(n2)N(C(=O)Nc2c[nH]nn2)[C@H]2CCN3C2)ccn1 [(9S)-5-(2-methylpyridin-4-yl)-N-(1H-1,2,3-triazol-4-yl)-1,6,8-triazatricyclo[7.2.1.0 {2,7}]dodeca-2(7),3,5-triene-8-carboxamide] | B (B (EC1.5 1-25 μM)) | > 150 |  | 
4 | O=C(Nc1cccnn1)N1c2nc(-c3cccc(C(F)(F)F)c3)ccc2N2C[C@@H](O)[C@H]1C2 [Example 631] |  |  |  | Tryp AVG EC1.5 (μM) [2]: B (B (EC1.5 1-25 μM))
5 | O=C(Nc1cncc(OC[C@@H](O)CO)n1)N1c2nc(-c3cccc(C(F)(F)F)c3)ccc2N2CC[C@H]1C2 [(9S)-N-{6-[(2S)-2,3-dihydroxypropoxy]pyrazin-2-yl}-5-[3-(trifluoromethyl)phenyl]-1,6,8-triazatricyclo[7.2.1.0 {2,7}]dodeca-2(7),3,5-triene-8-carboxamide] | A (A (EC1.5<1 μM)) | > 150 |  | 
6 | O=C(Nc1cnccn1)N1c2nc(-c3ccn[nH]3)ccc2N2CC[C@H]1C2 [(9S)-N-(pyrazin-2-yl)-5-(1H-pyrazol-5-yl)-1,6,8-triazatricyclo[7.2.1.0 {2,7}]dodeca-2(7),3,5-triene-8-carboxamide] | B (B (EC1.5 1-25 μM)) | > 150 |  | 
7 | O=C(Nc1cc(-c2cnco2)ccn1)N1c2nc(-c3cccc(C(F)(F)F)c3)ccc2N2CCC[C@H]1C2 [Example 591] |  |  | A (A (EC1.5<1 μM)) | 
8 | Cc1cncc(-c2ccc3c(n2)N(C(=O)Nc2cnccn2)[C@H]2CCCN3C2)c1 [Example 512] |  |  | B (B (EC1.5 1-25 μM)) | 
9 | CC1CCN(c2ccc3c(n2)N(C(=O)Nc2cnccn2)[C@H]2CCN3C2)CC1 [(9S)-5-(4-methylpiperidin-1-yl)-N-(pyrazin-2-yl)-1,6,8-triazatricyclo[7.2.1.0 {2,7}]dodeca-2,4,6-triene-8-carboxamide] | B (B (EC1.5 1-25 μM)) | > 150 |  | 
10 | Cc1cc(-c2ccc3c(n2)N(C(=O)NC2CCCC2)[C@H]2CCN3C2)ccn1 [(9S)-N-cyclopentyl-5-(2-methylpyridin-4-yl)-1,6,8-triazatricyclo[7.2.1.0 {2,7}]dodeca-2,4,6-triene-8-carboxamide] | B (B (EC1.5 1-25 μM)) | > 150 |  | 
11 | O=C(Nc1ccccc1CCC(F)(F)F)N1c2nc(Cl)ccc2N2CC[C@H]1C2 [(9S)-5-chloro-N-[2-(3,3,3-trifluoropropyl)phenyl]-1,6,8-triazatricyclo[7.2.1.0 {2,7}]dodeca-2(7),3,5-triene-8-carboxamide] | B (B (EC1.5 1-25 μM)) | > 150 |  | 
12 | O=C(Nc1cccc(C(F)(F)F)c1)N1c2nc(-c3cccc(C(F)(F)F)c3)ccc2N2CC[C@H]1C2 [Example 617] |  |  | A (A (EC1.5<1 μM)) | 
13 | O=C(Nc1cnccn1)N1c2nc(-c3ccc(Cl)c(C(F)(F)F)c3)ccc2N2CC[C@H]1C2 [Example 435] |  |  | A (A (EC1.5<1 μM)) | 
14 | O=C(NCCc1cccnc1)N1c2nc(-c3cccc(C(F)(F)F)c3)ccc2N2CC[C@H]1C2 [Example 615] |  |  | B (B (EC1.5 1-25 μM)) | 
15 | COc1cc(NC(=O)N2c3nc(-c4cccc(Cl)c4)ccc3N3CC[C@H]2C3)ncn1 [Example 104] |  |  |  | Tryp AVG EC1.5 (μM) (Trp peptide substrate, concentration giving 150% activation of SIRT1): B (B (EC1.5 1-25 μM))
16 | N#Cc1ccccc1-c1ccc2c(n1)N(C(=O)Nc1cccnn1)[C@H]1CCCN2C1 [Example 426] |  |  | B (B (EC1.5 1-25 μM)) | 
17 | O=C(Nc1cncc(F)c1)N1c2nc(-c3cncc(C(F)(F)F)c3)ccc2N2CCC[C@H]1C2 [Example 411] |  |  |  | Tryp AVG EC1.5 (μM) [4]: A (A (EC1.5<1 μM))
18 | N#Cc1ccccc1-c1ccc2c(n1)N(C(=O)Nc1cncc(F)c1)[C@H]1CCCN2C1 [Example 439] |  |  | B (B (EC1.5 1-25 μM)) | 
19 | O=C(Nc1ccncn1)N1c2nc(N3CCCN(CC(F)(F)F)CC3)ccc2N2CCC[C@H]1C2 [Example 491] |  |  | A (A (EC1.5<1 μM)) | 
20 | CS(=O)(=O)c1cncc(-c2ccc3c(n2)N(C(=O)Nc2cncc(F)c2)[C@H]2CCCN3C2)c1 [Example 377] |  |  |  | Tryp AVG EC1.5 (μM) [4]: A (A (EC1.5<1 μM))
21 | O=C(Nc1cccnc1)N1c2nc(N3CCC[C@H](C(F)(F)F)C3)ccc2N2CCC[C@H]1C2 [(9S)-N-(pyridin-3-yl)-5-[(3S)-3-(trifluoromethyl)piperidin-1-yl]-1,6,8-triazatricyclo[7.3.1.0 {2,7}]trideca-2(7),3,5-triene-8-carboxamide] | A (A (EC1.5<1 μM)) | > 150 |  | 
22 | Cc1cc(-c2ccc3c(n2)N(C(=O)Nc2cnccn2)[C@@H]2CCN3C2)ccn1 [(9R)-5-(2-methylpyridin-4-yl)-N-(pyrazin-2-yl)-1,6,8-triazatricyclo[7.2.1.0 {2,7}]dodeca-2(7),3,5-triene-8-carboxamide] | B (B (EC1.5 1-25 μM)) | > 150 |  | 
23 | Cc1cncc(-c2ccc3c(n2)N(C(=O)Nc2cccnc2)[C@H]2CCCN3C2)c1 [Example 515] |  |  | A (A (EC1.5<1 μM)) | 
24 | Cc1ccc(-c2ccc3c(n2)N(C(=O)Nc2cccc4cnccc24)[C@H]2CCN3C2)cn1 [(9S)-N-(isoquinolin-5-yl)-5-(6-methylpyridin-3-yl)-1,6,8-triazatricyclo[7.2.1.0 {2,7}]dodeca-2,4,6-triene-8-carboxamide] | B (B (EC1.5 1-25 μM)) | > 150 |  | 
25 | Cc1nc(NC(=O)N2c3nc(-c4ccccc4C#N)ccc3N3CCC[C@H]2C3)sc1C [Example 476] |  |  | B (B (EC1.5 1-25 μM)) | 
26 | Cc1noc(C)c1-c1cccc(NC(=O)N2c3nc(-c4cccc(C(F)(F)F)c4)ccc3N3CC[C@H]2C3)n1 [Example 657] |  |  |  | Tryp AVG EC1.5 (μM) [2]: A (A (EC1.5<1 μM))
27 | O=C(Nc1cccc(-c2cnco2)c1)N1c2nc(-c3cncc(Cl)c3)ccc2N2CCC1CC2 [Example 575] |  |  | A (A (EC1.5<1 μM)) | 
28 | O=C(Nc1ccncc1)N1c2nc(-c3cccc(C(F)(F)F)c3)ccc2N2CC(O)C1C2 (stereo not shown) [Compound 114] |  |  |  | Emax (Trp peptide substrate, percent maximum fold activation of SIRT1, read-out: Tryp % Fold Act): > 150%
29 | CC(C)(C)OC(=O)NCCn1cc(-c2cccc(NC(=O)N3c4nc(-c5cccc(C(F)(F)F)c5)ccc4N4CCC[C@H]3C4)c2)nn1 [Example 604] |  |  | A (A (EC1.5<1 μM)) | 
